Data as given in BigSolDB 2.1.

N=C(N)N.O=[N+]([O-])O
Conditions	solubility (mole fraction)
in acetone, 278.15 K	0.0003
in acetone, 283.15 K	0.0005
in acetone, 288.15 K	0.0009
in acetone, 293.15 K	0.0016
in acetone, 298.15 K	0.0029
in acetone, 303.15 K	0.0052
in acetone, 308.15 K	0.0092
in acetone, 313.15 K	0.0158
in acetone, 323.15 K	0.0503
in ethanol, 278.05 K	0.003
in ethanol, 283.15 K	0.0037
in ethanol, 288.35 K	0.0043
in ethanol, 293.15 K	0.0051
in ethanol, 298.25 K	0.0062
in ethanol, 303.25 K	0.007
in ethanol, 308.25 K	0.0081
in ethanol, 313.05 K	0.0094
in ethanol, 318.05 K	0.0108
in ethanol, 323.25 K	0.0124
in ethanol, 328.35 K	0.0143
in methanol, 278.25 K	0.0063
in methanol, 283.25 K	0.0075
in methanol, 288.25 K	0.0092
in methanol, 293.25 K	0.0107
in methanol, 298.35 K	0.0126
in methanol, 303.15 K	0.0148
in methanol, 308.35 K	0.0174
in methanol, 313.15 K	0.0198
in methanol, 318.25 K	0.0227
in methanol, 323.35 K	0.0264
in methanol, 328.05 K	0.0305
in n-propanol, 278.25 K	0.0009
in n-propanol, 283.25 K	0.0013
in n-propanol, 288.25 K	0.0017
in n-propanol, 293.15 K	0.002
in n-propanol, 298.35 K	0.0029
in n-propanol, 303.15 K	0.0041
in n-propanol, 308.35 K	0.0048
in n-propanol, 313.15 K	0.0061
in n-propanol, 318.25 K	0.0077
in n-propanol, 323.15 K	0.0092
in n-propanol, 328.05 K	0.012
in water, 278.25 K	0.009
in water, 283.35 K	0.0112
in water, 288.25 K	0.0136
in water, 292.95 K	0.0157
in water, 298.25 K	0.019
in water, 303.15 K	0.0222
in water, 308.35 K	0.0262
in water, 313.05 K	0.0302
in water, 318.25 K	0.0349
in water, 323.25 K	0.0401
in water, 328.35 K	0.0463
in water, 332.85 K	0.0511
